Values of other authors as cited in US7288243B2, “Aerosol drug inhibition of lung metastases” (Research Development Foundation, priority 2002, dated 2007).

Details: concurrent administration of cyclosporin; clinical studies

Increase of bioavailability of paclitaxel administered orally: 9 fold
Structure (SMILES): CC(=O)O[C@H]1C(=O)[C@@]2(C)[C@H]([C@H](OC(=O)c3ccccc3)[C@]3(O)C[C@H](OC(=O)[C@H](O)[C@@H](NC(=O)c4ccccc4)c4ccccc4)C(C)=C1C3(C)C)[C@]1(OC(C)=O)CO[C@@H]1C[C@@H]2O [paclitaxel]
